Reference: patent publication US5922838A, “Cyclic hexapeptide compounds” (Taisho Pharmaceutical Co., Ltd., priority 1995, dated 1999)

System: colon 26 (mouse colon cancer)
Assay: Anti-tumor effect on colon 26 (mouse colon cancer), subcutaneous transplant in CDF1 mice
Type: in vivo
Conditions: intravenously from day 3 on for 5 days, tumor volume ratio measured day 8, CDF1 male mice, T/C of not more than 42% judged effective
Experimental: Test Example [Anti-tumor effect on colon 26 (mouse colon cancer)]
A test was carried out according to the procedure disclosed in Cancer Res., 50. 2290~2295 (1990).
Colon 26 tumor tissue subcultured and transplanted on BALB/c female mice was excised from tumor-bearing mice by incision on the 11th day after the transplantation, and after removal of connective tissues it was minced with scissors. Then, 5 ml of Hank's balanced salt solution was added to 1 g of the tumor, followed by homogenization in a Luer-Lok syringe. After filtration through silicone gauze, cell number in the filtrate cell solution was counted by a hemocytometer and adjusted to 1.0 ×10^6 cells/ml. The resulting cell suspension was subcutaneously transplanted to CDF1 male mice (aged 6 weeks, Charles River, Japan Co.) at the right axillary site at a dose of 0.2 ml/mouse to provide test tumor-bearing mice with each group consisting of 8 mice. The day of cell transplantation was designated as "day 0". TI-356 was dissolved into a surfactant (a solution of HCO 60: polyethyleneglycol =2:1), followed by slow addition of physiological saline thereto to prepare test solutions of various concentrations with the ultimate concentration being about 0.5%. The test solutions were intravenously administered from "day 3" on for 5 days.
RA-VII was used as control.
Tumor propagation-inhibiting effect was determined by measuring the principal axis and the conjugate axis of tumor by a vernier caliper on the day following the completion to administer the compound (day 8) and calculating a tumor volume, a tumor volume ratio and T/C (%) according to the following formulae. T/C of not more than 42% was judged to be effective. [formula]

Row | Compound | T/C (%) (dose 0.8 mg/kg) | T/C (%) (dose 1.6 mg/kg) | T/C (%) (dose 3.13 mg/kg) | T/C (%) (dose 6.25 mg/kg)
1 | COc1ccc(C[C@H]2C(=O)N[C@@H](C)C(=O)N(C)C3Cc4ccc(cc4)Oc4cc(ccc4OCCN(C(C)C)C(C)C)CC(C(=O)N[C@H](C)C(=O)N[C@@H](C)C(=O)N2C)N(C)C3=O)cc1 (stereo partly drawn) [TI-356] | 42.1 | 41.5 | 34.5 | –
2 | COc1ccc(C[C@H]2C(=O)N[C@@H](C)C(=O)N(C)[C@H]3Cc4ccc(cc4)Oc4cc(ccc4OC)C[C@@H](C(=O)N[C@H](C)C(=O)N[C@@H](C)C(=O)N2C)N(C)C3=O)cc1 [RA-VII] | – | 55.8 | 48.0 | 49.0
